In PMC9731497, “Identification of potent anti-Cryptosporidium new drug leads by screening traditional Chinese medicines” (PLOS Neglected Tropical Diseases, 2022):
Values joined by “and” are separate entries in the source; they are usually repeats but may differ in a detail not shown here. Equal values may be shown once. Read-outs that look alike come from different tables or passages of the source.

Legend:
C. parvum = experiment: Histopathological analysis and immunohistochemistry of ileum of C. parvum-infected mice; assay type: in vivo, Cryptosporidium parvum; design: key to severity of C. parvum infection in ileum, Score: -, no oocysts; 1+, mild focal infection; 2+, moderate multifocal infection; 3+, severe diffuse infection; conditions: HE and immunohistochemistry, most severe area, day 14, dose not stated
Protocol: (§1) We performed a histopathological analysis to evaluate the growth inhibitory effects and toxicity of the hit compounds in C. parvum-infected mice. In brief, ileum was collected, fixed in 10% neutral buffered formalin, and paraffin-embedded. Each section was cut to a thickness of 4 μm for hematoxylin and eosin (HE) staining and immunohistochemistry. Immunohistochemistry (IHC) was performed following standard techniques using the Envision+ system (Agilent Technologies, Inc., Santa Clara, CA) and 3,3-diaminobenzidine (DAB)(Dojindo, Kumamoto, Japan). Anti-Toxoplasma gondii (RH strain) rabbit polyclonal IgG (Abcam, Cambridge, UK) was used as the primary antibody. The antibody cross reacts with C. Parvum. To reduce the endogenous peroxidase activity, the sections were incubated with 3% H2O2 for 5 minutes. Sections were incubated with primary antibodies overnight at 4°C. After washing with PBS with Tween 20 (PBST), sections were incubated with Envision+ single polymer solution (Agilent Technologies Inc.) for 30 minutes at room temperature. Sections were counterstained with Mayer’s hematoxylin. The severity of C. parvum infection was evaluated in the most severe area, and scored from—to 3+ (-, no oocysts; 1+, mild focal infection; 2+, moderate multifocal infection; 3+, severe diffuse infection). Sub-effects of drugs (hepatocellular damage) were evaluated for major histological changes in karyomegaly, hepatocellular hypertrophy, and interstitial fibrosis/inflammation. We also checked the organs (liver, heart, lung, kidney, and intestines) alteration at necropsy whether it has abnormal or normal.

[1] = initial dose-finding doses, 11 consecutive days (S1 Fig)
Protocol: The growth inhibitory effect of the hit compounds was assessed in a mouse model infected with C. parvum oocysts. In this experiment, four-week-old female SCID mice (Charles River Laboratories, Shizuoka, Japan) were used. In the infected groups, mice were orally inoculated with 1.0 × 10^5 C. parvum oocysts by using sterile gavage needles. Initially, four compounds were tested at different concentrations to figure out the optimum dosages. Six groups of mice were given oral dosages of 50, 25, and 12.5 mg/kg body weight (BW) of two compounds (alisol-A and alisol-B). […] Bufotalin was given orally at three different doses to the other mouse group: 0.1, 0.05, and 0.025 mg/kg BW. […] The positive control group consisted of infected and untreated mice, whereas the negative control group consisted of noninfected and untreated mice. Treatment began on the third day after infection and lasted until the thirteenth day. The body weight and condition were checked every day, and treatment was given based on the body weight. On days 1, 3, 6, 7, 9, 12, 14, fecal samples were taken. The total number of oocysts per gram was calculated after counting the oocysts in the feces using the sugar flotation method. The treated and untreated mice were euthanized by cervical dislocation on day 14, and a thorough necropsy was performed.

HCT-8 cells = experiment: Host cell viability assay (Cell-Titer Glo); conditions: HCT-8 cells, 48 h, 1 μM
Protocol: (§2) HCT-8 cells (4 × 10^4 cells/well) 100 μl were seeded in 96-well plates, cultured for 24 h, and then treated for 48 h with different concentrations of hit compounds (10^1, 1, 10^−1, 10^−2, 10^−3, 10^−4 μM). After a 48-h incubation period, equilibrate the 96-well plates in room temperature (RT) for 30 minutes. Then, equal volume of Cell-Titer Glo (Promega) reagent was added to each treated well, the plate was shaken on an orbital shaker for 2 minutes then incubated for 10 minutes at RT. The luminescence was quantified by the GloMax Navigator plate reader (Promega, Japan) and the cell viability was evaluated as directed by the kit manufacturer. The luminescence signal of control wells containing DMSO was set to 100% cell viability. […] Graph Pad Prism 7.0.1 was used to determine CC50 values.

[2] = Host cell viability assay (Cell-Titer Glo); conditions: human
Protocol: as §2

C. parvum HNJ-1 strain [3] = experiment: In vitro C. parvum growth inhibition assay (Sporo-Glo staining, fluorescence microscopy count in infected HCT-8 cells); assay type: cell-based, Cryptosporidium parvum; conditions: for EC50: read-out: EC50 value
Protocol: The primary screening of compounds for C. parvum was performed as follows: HCT-8 cells were seeded in 96-well plates at a density of 2 × 10^4 cells/well and allowed to grow overnight. Before infecting cells, Cryptosporidium oocysts were excysted to sporozoites. 87 compounds were tested against C. parvum at a single concentration of 1 μM. Each compound was tested once. Infected HCT-8 cells and uninfected HCT-8 cells were used as positive and negative controls, respectively, in medium containing 0.1% DMSO. Nitazoxanide was used as a standard comparative drug. In vitro inhibition assays were carried out as previously described. Briefly, oocysts were suspended in 1 ml of 0.1% sodium hypochlorite in PBS, incubated for 5 min at 4°C, centrifuged for 10 min at 3000 rpm, and washed three times in PBS. The oocysts were then suspended in excystation solution consisting of 0.75% sodium taurocholate and 0.25% trypsin dissolved in 0.1 M phosphate buffer (with 93.4 mM K2HPO4 and 6.5 mM KH2PO4; pH 8.0) and incubated at 37°C for 1 h. The oocyst/sporozoite suspensions were then rinsed in 1 x PBS (with 137 mM NaCl, 2.7 mM KCl, 8 mM Na2HPO4, and 2 mM KH2PO4; pH 7.5) once more before being filtered through a 5-μm pore-size PVDF filter (Millipore, Burlington, MA, USA) with 5 ml syringe to remove the oocyst wall. HCT-8 cells were seeded in 96-well plates (Thermo Fisher Scientific Inc., MA, USA) and incubated overnight. The cells were then infected with C. parvum sporozoites (4 ×10^4 sporozoites/well) containing in RPMI-1640 medium for 3 h. After 3h inoculation, the non-infected parasite or debris were washed with new RPMI-1640 media. At this point, in RPMI-1640 medium containing 1 μM library compounds were added. Infected cells were incubated for an additional 45 h. Following incubation, the infected cells were fixed for 10 minutes in ice-cold 100% methanol at room temperature. Plates were then carefully rinsed 3 times with PBS. The parasite infected cells were then blocked with 1% bovine serum albumin (BSA) in PBS for 30 minutes and then stained with Sporo-Glo (an anti-Cryptosporidium polyclonal antibody) (Waterborne Environmental, Inc., VA, USA) protected from light for 1 h at room temperature. Finally, cells were washed twice with 1 x PBS-T (1 x PBS supplemented with 0.01% Tween). A Keyence BZ-II 9000 was used to capture the images (KEYENCE, Osaka, Japan). The plates were imaged with a HS all-in-one fluorescence microscope using a 20 x objective. The image output was imported into Microsoft excel for data organization and analyses. All C. parvum parasite in the well were counted.
For a second investigation, four selective hit compounds were used to determine the half-maximum inhibitory concentration (EC50). The parasites were treated with various doses of compounds (ranging from 0.008–1 μM). HCT-8 cells (2 × 10^4 cells/well) were grown for 24 h before being infected with 4 × 10^4 C. parvum sporozoites in 96-well plates. […] Sporo-Glo was used for C. parvum staining as described above. Fluorescence microscopy with a Keyence BZ-II 9000 imager was used to count all Cryptosporidium in the wells (KEYENCE, Osaka, Japan). EC50 vales were determined by analyzing dose-response curves made by GraphPad Prism (GraphPad Software, CA, USA).

C. parvum HNJ-1 strain [4] = experiment: In vivo C. parvum growth inhibition assay (oocyst shedding in feces of infected SCID mice, sugar flotation); design: species or system Cryptosporidium parvum; conditions: 11 days; for No. of oocysts, Mean: SCID mice n=3, mean of days 3, 6, 7, 9, 12, 14; for % reduction in oocyst shedding: SCID mice n=3, vs untreated infected control
[5] = Liver histology (sub-effects of drugs, hepatocellular damage) in treated mice; assay type: in vivo, SCID mice
Protocol: as §1

Cryptosporidium parvum = conditions: cited from earlier work
[6] = initial dose-finding (S1 Table), 0.1 mg/kg BW, 1 mouse

## CC(=O)O[C@H]1C[C@]2(O)[C@@H]3CC[C@@H]4C[C@@H](O)CC[C@]4(C)[C@H]3CC[C@]2(C)[C@H]1c1ccc(=O)oc1 [Bufotalin]
C. parvum
  severity of C. parvum infection in ileum, Score: 1+
[1]
  body weight of treated infected mice: not significant
HCT-8 cells
  Host cell viability (%): 95.1%
[2]
  CC50 at 48 h: 10.9 µM
[2]; Host cell viability (%), HCT-8 cells, 48 h, 1 μM
  viability at 48 h, 1 µM: > 95%
C. parvum HNJ-1 strain [3]; Cryptosporidium parvum, HCT-8, 45 h
  EC50: 63.4 ± 18.7 nM
C. parvum HNJ-1 strain [3]; Cryptosporidium parvum, HCT-8, 45 h, read-out: Parasite inhibition (%)
  inhibition at 1 µM: 82.9%
C. parvum HNJ-1 strain [3]; ratio of CC50 (HCT-8) / EC50 (C. parvum)
  Selectivity index: 172.3
C. parvum HNJ-1 strain [4]; 0.025 mg/kg BW oral
  No. of oocysts, Mean: 92.3
  % reduction in oocyst shedding: 58.2%
C. parvum HNJ-1 strain [4]; 0.05 mg/kg BW oral
  No. of oocysts, Mean: 86.6
  % reduction in oocyst shedding: 60.8%
C. parvum HNJ-1 strain [4]; 0.1 mg/kg BW oral
  No. of oocysts, Mean: 48.5
  % reduction in oocyst shedding: 78.1%
C. parvum HNJ-1 strain [4]; [6]
  % of oocysts shedding: 28.8%
  % reduction in oocysts shedding: 71.2%
[5]; HE stain, infected treated mice (S3 Fig)
  histological findings in liver: inflammation and hepatocellular hypertrophy

## CC(=O)Oc1ccccc1C(=O)Nc1ncc([N+](=O)[O-])s1 [Nitazoxanide]
Cryptosporidium parvum; ref 30 (Bessoff et al., 2013), read-out: IC50 against Cryptosporidium parvum
  IC50: ~3.7 µM and 3.7 µM
Cryptosporidium parvum; ref PMID: 22167242, PMID: 29341586, PMID: 30297368, read-out: range of EC50 value
  EC50: 1.55 to 5.1 µM
C. parvum
  severity of C. parvum infection in ileum, Score: 2+
C. parvum HNJ-1 strain [3]; Cryptosporidium parvum, HCT-8, C. parvum, dose-dependent curve of comparative drug (response to reviewers)
  EC50: 4140 ± 540 nM
C. parvum HNJ-1 strain [4]; 100 mg/kg BW oral
  No. of oocysts, Mean: 81.1
[5]; mouse, in vivo
  histological findings in liver: karyomegaly and hepatocellular hypertrophy
